# Measured values from patent publication US6350859B1, “Class BI and CI scavenger receptors” (Massachusetts Institute of Technology, priority 1994, dated 2002).
# Experiments:
# [1] = tested on: dSR-CI; assay: Competitive inhibition of 125I-AcLDL degradation activity by CHO[dSR-CI]-2.6a cells; type: cell-based, Drosophila melanogaster
# Description: (§1) Scavenger receptor activities at 37° C. were measured by ligand binding, uptake and degradation assays as described by Krieger, 1983; Freeman et al., 1991). Although binding and uptake at 37° C. were determined separately using dextran-sulfate to free surface bound lipoproteins from the cells as described for LDL receptor assays by Goldstein et al., 1983; Basu et al., 1983 Science 219, 871-873), this method for separating bound from internalized ligand for ^125I-AcLDL and scavenger receptors has not been independently validated. Accordingly, the values for binding and uptake were combined and are presented as binding plus uptake observed after a 5 hour incubation and are expressed as ng of ^125I-AcLDL protein per 5 hr per mg cell protein. Degradation activity is expressed as ng of ^125I-AcLDL protein degraded in 5 hours per mg of cell protein. The specific, high affinity values presented represent the differences between the results obtained in the presence (single determinations) and absence (duplicate determinations) of excess unlabeled competing ligand (75 to 200 μg/ml of M-BSA). Cell surface 4° C. binding was assayed using either method A or method B as indicated. In method A, cells were prechilled on ice for 15 min, re-fed with ^125I-AcLDL in ice-cold medium B supplemented with 10% (v/v) fetal bovine serum, with or without 75-200 μg/ml unlabeled M-BSA, and incubated 2 hr at 4° C. on a shaker. Cells were then washed rapidly three times with Tris wash buffer (50 mM Tris-HCl, 0.15M NaCl, pH 7.4) containing 2 mg/ml BSA, followed by two 5 min washes, and two rapid washes with Tris wash buffer without BSA. The cells were solubilized in 1 ml of 0.1N NaOH for 20 min at room temperature on a shaker, 30 μl were removed for protein determination, and the radioactivity in the remainder was determined using a LKB gamma counter. Method B differed from method A in that the cells were prechilled for 45 minutes, the medium contained 10 mM HEPES and 5% (v/v) human lipoprotein-deficient serum rather than fetal bovine serum, and the cell-associated radioactivity released by treatment with dextran sulfate was measured as described by Krieger, 1983; Freeman et al., 1991).
# Competitive binding of AcLDL was performed to more accurately define the specificity of the AcLDL binding.
# [2] = tested on: Var-261 cells; assay: 125I-AcLDL degradation and binding plus uptake at 37° C. in Var-261 cells; type: cell-based, Chinese hamster; conditions: for competition for 125I-AcLDL degradation: 125I-AcLDL 5 μg/ml, 5 hr
# [3] = molecular target: T1, CD36 (Homo sapiens, UniProt P16671); assay: 125I-AcLDL degradation at 37° C. in COS cells transfected with CD36, competition; type: cell-based; conditions: 5 hr, FIG. 4B: M-BSA 4, AcLDL 500, fucoidin 200, poly I 500, poly G 500, ReLPS 250 μg/ml
# T1 construct: expressed in transfected cells; host or cells: COS cells (transient)
# Description: as §1
# COS cells were transfected on day 1 with a plasmid encoding CD36. On day 2 the transfected cells were set in 6-well dishes at 1×10^6 cells/well in medium A plus 1 mM sodium butyrate. On day 3, 125I-AcLDL binding at 4° C. was measured. […] On day 3, degradation of ^125I-AcLDL (5 μg/ml) was measured after a 5 hr incubation at 37° C. in the absence (duplicate determinations) or presence (duplicate determinations) of the indicated competitors. […]
# [4] = tested on: Var-261 cells; assay: 125I-AcLDL binding at 4° C. to Var-261 cells, competition; design: species or system Chinese hamster; conditions: 125I-AcLDL 5 μg/ml, FIG. 3B: M-BSA 10, poly G 500, fucoidin 200, carrageenan 200, LDL 500 μg/ml
# Description: as §1
# (§2) To measure binding of AcLDL, on day 1, COS cells were transfected with the expression vector for the hamster scavenger receptor type BI (haSR-BI). On day 2 the transfected COS cells were plated in 6-well dishes (1×10^6 cells/well in medium A plus 1 mM sodium butyrate). […] On day 3 the binding of ^125I-AcLDL (5 μg/ml) at 4° C. in the absence or presence of the indicated competitors was measured using Method A. The values shown in the Figures represent the averages of duplicate determinations. […]
# [5] = molecular target: T2, haSR-BI (Cricetulus griseus, UniProt Q60417); assay: 125I-AcLDL binding at 4° C. to haSR-BI in transfected COS or ldlA cells; design: species or system hamster; conditions: ldlA[haSR-BI] cells, 125I-AcLDL 5 μg/ml, FIG. 3B: M-BSA 10, poly G 500, fucoidin 200, carrageenan 200, LDL 500 μg/ml
# T2 construct: expressed in transfected cells
# T2 sequence (Q60417 1-509): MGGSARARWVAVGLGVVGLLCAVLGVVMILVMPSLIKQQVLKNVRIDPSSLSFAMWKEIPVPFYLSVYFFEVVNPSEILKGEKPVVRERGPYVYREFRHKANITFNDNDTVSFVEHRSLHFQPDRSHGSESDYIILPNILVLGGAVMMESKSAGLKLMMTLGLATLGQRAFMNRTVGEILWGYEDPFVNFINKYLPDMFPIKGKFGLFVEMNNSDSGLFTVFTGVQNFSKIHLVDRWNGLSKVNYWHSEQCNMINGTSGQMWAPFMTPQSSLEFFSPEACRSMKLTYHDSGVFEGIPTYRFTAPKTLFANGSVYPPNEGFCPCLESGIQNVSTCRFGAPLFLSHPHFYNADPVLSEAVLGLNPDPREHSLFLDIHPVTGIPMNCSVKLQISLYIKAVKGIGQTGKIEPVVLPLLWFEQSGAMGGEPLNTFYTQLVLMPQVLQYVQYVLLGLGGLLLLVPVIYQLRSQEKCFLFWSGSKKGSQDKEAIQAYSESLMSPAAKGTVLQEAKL
# Description: as §1
# HDL and VLDL binding to SR-BI and CD36 were conducted as described for LDL and modified LDL.
# as §2
# [6] = molecular target: T3, murine type II macrophage scavenger receptor (mSR-AII) (Mus musculus, UniProt P30204); assay: 125I-AcLDL degradation at 37° C. in COS cells expressing murine scavenger receptor type II; type: cell-based; conditions: for competition for 125I-AcLDL degradation: COS[mSR-AII] cells, 125I-AcLDL 5 μg/ml, 5 hr, 37° C.
# T3 construct: expressed in transfected cells; host or cells: COS cells (transient)
# T3 sequence (P30204 1-354 isoform P30204-2): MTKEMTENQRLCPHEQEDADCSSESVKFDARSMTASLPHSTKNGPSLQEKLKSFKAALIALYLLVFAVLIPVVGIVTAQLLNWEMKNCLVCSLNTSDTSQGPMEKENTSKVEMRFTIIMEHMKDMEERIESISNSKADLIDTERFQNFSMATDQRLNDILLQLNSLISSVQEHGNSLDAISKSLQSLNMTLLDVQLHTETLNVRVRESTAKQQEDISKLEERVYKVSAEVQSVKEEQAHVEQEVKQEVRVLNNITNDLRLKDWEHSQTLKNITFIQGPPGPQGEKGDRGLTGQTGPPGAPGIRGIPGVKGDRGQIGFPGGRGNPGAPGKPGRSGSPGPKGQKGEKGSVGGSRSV
# Description: as §1, with “In method A, cells were prechilled on ice for 15 min, re-fed with ^125I-AcLDL in ice-cold medium B supplemented with 10% (v/v) fetal bovine serum, with or without 75-200 μg/ml unlabeled M-BSA, and incubated 2 hr at 4° C. on a shaker. Cells were then washed rapidly three times with Tris wash buffer (50 mM Tris-HCl, 0.15M NaCl, pH 7.4) containing 2 mg/ml BSA, followed by two 5 min washes, and two rapid washes with Tris wash buffer without BSA.” left out
# COS cells were transfected on day 1 with murine scavenger receptor type II. […] On day 3, ^125I-AcLDL (5 μg/ml) in medium B plus 10% fetal bovine serum was added to the cells and degradation was measured after a 5 hr incubation at 37° C. in the absence (duplicate determinations) or presence (duplicate determinations) of the indicated amounts of polyanions. […]
# T1 sequence (P16671 whole entry): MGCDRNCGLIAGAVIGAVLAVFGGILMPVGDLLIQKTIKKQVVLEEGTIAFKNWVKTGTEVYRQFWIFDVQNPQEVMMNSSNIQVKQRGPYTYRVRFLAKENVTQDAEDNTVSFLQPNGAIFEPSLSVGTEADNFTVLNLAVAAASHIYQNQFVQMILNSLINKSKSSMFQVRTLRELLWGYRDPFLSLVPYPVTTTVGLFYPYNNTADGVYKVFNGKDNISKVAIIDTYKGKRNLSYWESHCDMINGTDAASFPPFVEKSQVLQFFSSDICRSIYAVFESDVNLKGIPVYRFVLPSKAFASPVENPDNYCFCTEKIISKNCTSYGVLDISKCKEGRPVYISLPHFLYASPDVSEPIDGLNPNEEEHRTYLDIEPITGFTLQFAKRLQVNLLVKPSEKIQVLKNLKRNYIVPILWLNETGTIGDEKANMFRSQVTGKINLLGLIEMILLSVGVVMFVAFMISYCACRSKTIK
Compound,Degradation (% No Competitor) ([1]; competitor 400 μg/ml),"inhibition of receptor activity, 125I-AcLDL degradation [3]",inhibition of 125I-AcLDL binding [4],inhibition of 125I-AcLDL binding [5],competition for 125I-AcLDL degradation ([2]; 37° C.),further results
Poly D-glutamic acid,34 % No Competitor,,,,,
Dextran,100 % No Competitor,,,,,
CCN(CC)CCCC(C)Nc1ccnc2cc(Cl)ccc12 (centres unmarked) [chloroquine],,,,,,effect on 125I-AcLDL binding plus uptake ([2]; 37° C.): not; effect on 125I-AcLDL degradation ([2]; 37° C.): inhibited
M-BSA: maleylated BSA,6.7 % No Competitor,inhibited,inhibited,inhibited,inhibited,
fucoidin,,not,competitors,not inhibited,effective competitors,competition for 125I-AcLDL degradation [6]: effective competitors
carrageenan,,,competitors,not inhibited,,
dextran sulfate,,,,,,Degradation (% No Competitor) ([1]; competitor concentration not given): 4.2 % No Competitor
Polyriboguanylic acid [poly G],,not,competitors,not inhibited,effective competitors,competition for 125I-AcLDL degradation [6]: effective competitors
polyriboinosinic acid [poly I],2.7 % No Competitor,not,,,,"inhibition of 125I-AcLDL degradation ([6]; class A scavenger receptors, competitor at 2.5 μg/ml): greater than 50%; inhibition of 125I-AcLDL degradation ([2]; competitor at 400 μg/ml): 34%"
